In ChEMBL document CHEMBL1141725, “DNA-templated click chemistry for creation of novel DNA binding molecules” (Bioorg Med Chem Lett, 2008):

Experiments:
[1] = Stabilization of double strand CGCG12 DNA assessed as change in melting temperature
[2] = Binding affinity to double strand AATT12 DNA by fluorescence titration
[3] = Stabilization of double strand AATT12 DNA assessed as change in melting temperature
[4] = Binding affinity to double strand CGCG12 DNA by fluorescence titration

| Structure (SMILES) | ΔTm [1] | Ks [2] | ΔTm [3] | Ks [4] |
| --- | --- | --- | --- | --- |
| N=C(N)NCCC[C@@H](CN1CCC[C@H]1C(N)=O)NC(=O)CNC(=O)[C@H](CCCNC(=N)N)NC(=O)[C@@H]1CCCN1C(=O)CCCc1cn(CCCNc2c3ccccc3nc3ccccc23)nn1 | 3.9 °C | 7.3 ×10⁵ /M | 8.1 °C | 3.6 ×10⁵ /M |
| C#CCCCC(=O)N1CCC[C@H]1C(=O)N[C@@H](CCCNC(=N)N)C(=O)NCC(=O)N[C@@H](CCCNC(=N)N)CN1CCC[C@H]1C(N)=O | 0 °C | 0.01 ×10⁵ /M | 0 °C |  |
| [N-]=[N+]=NCCCNc1c2ccccc2nc2ccccc12 | 2 °C | 1.6 ×10⁵ /M | 3.1 °C | 2 ×10⁵ /M |
